Experimental data taken from paper PMC4076210, “Discovery of Novel AKT Inhibitors with Enhanced Anti-Tumor Effects in Combination with the MEK Inhibitor” (PLoS ONE, 2014).
Read-outs that look alike come from different tables or passages of the source.

What was measured:
Type in all cases: biochemical
[1] = molecular target: T1, GRK6(h) (Homo sapiens, UniProt P43250); experiment: Kinase panel
T1 construct: purchased Millipore KinaseProfiler

[2] = molecular target: T2, PAR-1Bα(h) (Homo sapiens, UniProt Q7KZI7); experiment: Kinase panel
T2 construct: purchased Millipore KinaseProfiler
T2 sequence (Q7KZI7 1-725 isoform Q7KZI7-4): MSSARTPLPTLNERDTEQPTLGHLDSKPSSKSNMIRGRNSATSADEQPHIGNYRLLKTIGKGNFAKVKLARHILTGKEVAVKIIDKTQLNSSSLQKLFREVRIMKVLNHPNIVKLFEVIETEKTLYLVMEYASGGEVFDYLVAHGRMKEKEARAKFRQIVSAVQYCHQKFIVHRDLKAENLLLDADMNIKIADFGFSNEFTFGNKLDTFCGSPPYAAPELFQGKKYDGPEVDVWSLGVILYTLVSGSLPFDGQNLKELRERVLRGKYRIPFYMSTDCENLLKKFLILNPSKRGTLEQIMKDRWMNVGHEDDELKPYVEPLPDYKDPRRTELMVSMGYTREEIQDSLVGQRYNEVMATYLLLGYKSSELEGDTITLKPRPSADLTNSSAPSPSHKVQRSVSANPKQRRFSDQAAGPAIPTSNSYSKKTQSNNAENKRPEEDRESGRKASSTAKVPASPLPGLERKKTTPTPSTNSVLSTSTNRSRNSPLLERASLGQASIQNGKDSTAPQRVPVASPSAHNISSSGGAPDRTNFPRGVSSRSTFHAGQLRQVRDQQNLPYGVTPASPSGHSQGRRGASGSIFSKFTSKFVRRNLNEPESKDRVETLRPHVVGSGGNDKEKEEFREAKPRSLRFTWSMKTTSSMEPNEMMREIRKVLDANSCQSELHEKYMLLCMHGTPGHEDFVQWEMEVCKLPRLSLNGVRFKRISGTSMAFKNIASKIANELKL

[3] = molecular target: T3, JNK1α1(h) (Homo sapiens, UniProt P45983); experiment: Kinase panel
T3 construct: purchased Millipore KinaseProfiler
T3 sequence (P45983 1-384 isoform P45983-2): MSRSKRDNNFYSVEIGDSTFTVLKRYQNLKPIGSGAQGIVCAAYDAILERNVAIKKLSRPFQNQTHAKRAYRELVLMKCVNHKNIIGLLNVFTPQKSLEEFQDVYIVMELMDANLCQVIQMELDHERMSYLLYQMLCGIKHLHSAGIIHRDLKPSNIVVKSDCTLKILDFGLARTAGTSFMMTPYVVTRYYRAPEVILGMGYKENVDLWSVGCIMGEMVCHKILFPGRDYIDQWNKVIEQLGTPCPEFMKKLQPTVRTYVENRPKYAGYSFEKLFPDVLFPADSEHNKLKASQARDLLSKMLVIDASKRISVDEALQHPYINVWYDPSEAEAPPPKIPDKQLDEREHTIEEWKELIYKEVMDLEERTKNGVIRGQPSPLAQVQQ

[4] = molecular target: T4, SAPK2b(h) (Homo sapiens, UniProt Q15759); experiment: Kinase panel
T4 construct: purchased Millipore KinaseProfiler
T4 sequence (Q15759 whole entry): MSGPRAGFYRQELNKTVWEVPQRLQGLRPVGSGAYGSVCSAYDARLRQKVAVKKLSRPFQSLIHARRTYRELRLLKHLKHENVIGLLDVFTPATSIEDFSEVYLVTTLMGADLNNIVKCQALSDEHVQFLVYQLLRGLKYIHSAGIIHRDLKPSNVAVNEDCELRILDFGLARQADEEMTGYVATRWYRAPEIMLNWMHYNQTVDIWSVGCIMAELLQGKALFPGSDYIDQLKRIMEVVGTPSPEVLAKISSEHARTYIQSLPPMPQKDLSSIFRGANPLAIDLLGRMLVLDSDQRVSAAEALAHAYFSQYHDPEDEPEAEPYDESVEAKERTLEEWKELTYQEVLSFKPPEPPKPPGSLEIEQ

[5] = molecular target: T5, ULK2(h) (Homo sapiens, UniProt Q8IYT8); experiment: Kinase panel
T5 construct: purchased Millipore KinaseProfiler
T5 sequence (Q8IYT8 1-1036): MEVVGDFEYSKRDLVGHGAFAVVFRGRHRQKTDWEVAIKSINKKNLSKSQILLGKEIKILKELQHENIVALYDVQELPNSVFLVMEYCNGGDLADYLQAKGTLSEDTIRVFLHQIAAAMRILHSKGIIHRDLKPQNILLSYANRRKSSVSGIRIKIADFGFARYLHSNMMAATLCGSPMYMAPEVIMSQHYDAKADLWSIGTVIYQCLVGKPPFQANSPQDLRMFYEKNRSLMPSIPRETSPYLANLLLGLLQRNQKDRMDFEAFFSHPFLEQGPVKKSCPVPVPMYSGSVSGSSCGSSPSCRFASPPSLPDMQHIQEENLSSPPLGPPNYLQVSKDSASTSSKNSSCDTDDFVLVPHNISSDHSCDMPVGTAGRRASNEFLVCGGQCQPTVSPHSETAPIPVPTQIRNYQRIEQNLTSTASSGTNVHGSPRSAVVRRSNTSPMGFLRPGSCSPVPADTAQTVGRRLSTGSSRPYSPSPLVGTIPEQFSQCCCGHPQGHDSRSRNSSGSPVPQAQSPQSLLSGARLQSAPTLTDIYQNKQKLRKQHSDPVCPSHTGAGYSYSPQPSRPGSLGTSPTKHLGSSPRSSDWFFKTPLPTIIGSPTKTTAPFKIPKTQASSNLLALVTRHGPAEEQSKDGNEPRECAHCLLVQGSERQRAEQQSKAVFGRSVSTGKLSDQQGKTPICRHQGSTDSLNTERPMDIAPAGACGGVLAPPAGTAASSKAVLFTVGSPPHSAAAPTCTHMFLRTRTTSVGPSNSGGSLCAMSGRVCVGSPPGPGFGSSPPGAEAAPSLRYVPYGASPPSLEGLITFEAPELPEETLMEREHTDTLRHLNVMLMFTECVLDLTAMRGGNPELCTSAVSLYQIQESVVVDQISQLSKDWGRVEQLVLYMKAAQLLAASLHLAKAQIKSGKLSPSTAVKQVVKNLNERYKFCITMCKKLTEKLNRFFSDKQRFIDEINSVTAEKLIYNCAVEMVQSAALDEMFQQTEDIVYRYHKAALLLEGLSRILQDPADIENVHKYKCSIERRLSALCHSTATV

[6] = molecular target: T6, TBK1(h) (Homo sapiens, UniProt Q9UHD2); experiment: Kinase panel
T6 construct: purchased Millipore KinaseProfiler
T6 sequence (Q9UHD2 1-729): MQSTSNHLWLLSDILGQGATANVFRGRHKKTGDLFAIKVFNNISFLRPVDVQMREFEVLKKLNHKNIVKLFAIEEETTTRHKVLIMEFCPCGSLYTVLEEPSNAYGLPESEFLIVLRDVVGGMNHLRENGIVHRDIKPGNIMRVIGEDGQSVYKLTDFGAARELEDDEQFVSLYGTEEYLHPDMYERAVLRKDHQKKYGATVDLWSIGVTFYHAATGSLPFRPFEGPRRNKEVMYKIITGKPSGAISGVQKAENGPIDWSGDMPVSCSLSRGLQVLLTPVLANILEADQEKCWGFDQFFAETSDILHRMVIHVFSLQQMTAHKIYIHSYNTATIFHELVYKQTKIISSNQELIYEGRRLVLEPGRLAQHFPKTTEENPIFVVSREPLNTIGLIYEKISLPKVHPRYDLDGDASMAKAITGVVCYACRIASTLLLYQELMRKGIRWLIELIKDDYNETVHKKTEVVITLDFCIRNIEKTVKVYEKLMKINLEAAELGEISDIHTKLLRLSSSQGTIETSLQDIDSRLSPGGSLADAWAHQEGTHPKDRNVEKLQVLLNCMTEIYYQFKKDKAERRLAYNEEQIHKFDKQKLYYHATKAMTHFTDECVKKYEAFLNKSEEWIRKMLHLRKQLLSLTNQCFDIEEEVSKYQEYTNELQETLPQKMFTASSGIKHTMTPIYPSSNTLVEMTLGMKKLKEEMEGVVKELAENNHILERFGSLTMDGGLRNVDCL

[7] = molecular target: T7, MAPKAP-K2(h) (Homo sapiens, UniProt P49137); experiment: Kinase panel
T7 construct: purchased Millipore KinaseProfiler
T7 sequence (P49137 whole entry): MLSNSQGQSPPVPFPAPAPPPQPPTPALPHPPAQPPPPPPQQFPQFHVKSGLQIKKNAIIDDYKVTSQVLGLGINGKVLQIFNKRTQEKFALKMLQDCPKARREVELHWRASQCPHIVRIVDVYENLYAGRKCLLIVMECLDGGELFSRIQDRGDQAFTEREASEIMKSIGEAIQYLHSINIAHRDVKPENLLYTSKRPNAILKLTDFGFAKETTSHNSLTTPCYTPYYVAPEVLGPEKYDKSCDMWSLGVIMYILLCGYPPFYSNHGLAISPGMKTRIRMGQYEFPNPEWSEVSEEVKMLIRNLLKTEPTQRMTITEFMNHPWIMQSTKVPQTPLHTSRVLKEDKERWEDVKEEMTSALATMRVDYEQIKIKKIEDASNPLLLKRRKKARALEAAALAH

[8] = molecular target: PKCα (Homo sapiens, UniProt P17252); experiment: Kinase IC50 assay
[9] = molecular target: T8, SAPK2a(h) (Homo sapiens, UniProt Q16539); experiment: Kinase panel
T8 construct: purchased Millipore KinaseProfiler
T8 sequence (Q16539 whole entry): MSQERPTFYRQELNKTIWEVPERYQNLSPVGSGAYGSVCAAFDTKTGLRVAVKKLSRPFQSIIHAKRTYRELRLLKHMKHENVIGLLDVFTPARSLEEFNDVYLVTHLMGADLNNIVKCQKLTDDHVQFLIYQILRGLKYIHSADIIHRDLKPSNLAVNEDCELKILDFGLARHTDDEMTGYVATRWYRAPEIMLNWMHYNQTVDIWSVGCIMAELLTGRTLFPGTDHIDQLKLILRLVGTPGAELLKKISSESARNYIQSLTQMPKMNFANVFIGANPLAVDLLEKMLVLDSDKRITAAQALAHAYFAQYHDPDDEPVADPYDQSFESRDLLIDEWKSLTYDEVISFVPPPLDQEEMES

[10] = molecular target: T9, Fer(h) (Homo sapiens, UniProt P16591); experiment: Kinase panel
T9 construct: purchased Millipore KinaseProfiler
T9 sequence (P16591 whole entry): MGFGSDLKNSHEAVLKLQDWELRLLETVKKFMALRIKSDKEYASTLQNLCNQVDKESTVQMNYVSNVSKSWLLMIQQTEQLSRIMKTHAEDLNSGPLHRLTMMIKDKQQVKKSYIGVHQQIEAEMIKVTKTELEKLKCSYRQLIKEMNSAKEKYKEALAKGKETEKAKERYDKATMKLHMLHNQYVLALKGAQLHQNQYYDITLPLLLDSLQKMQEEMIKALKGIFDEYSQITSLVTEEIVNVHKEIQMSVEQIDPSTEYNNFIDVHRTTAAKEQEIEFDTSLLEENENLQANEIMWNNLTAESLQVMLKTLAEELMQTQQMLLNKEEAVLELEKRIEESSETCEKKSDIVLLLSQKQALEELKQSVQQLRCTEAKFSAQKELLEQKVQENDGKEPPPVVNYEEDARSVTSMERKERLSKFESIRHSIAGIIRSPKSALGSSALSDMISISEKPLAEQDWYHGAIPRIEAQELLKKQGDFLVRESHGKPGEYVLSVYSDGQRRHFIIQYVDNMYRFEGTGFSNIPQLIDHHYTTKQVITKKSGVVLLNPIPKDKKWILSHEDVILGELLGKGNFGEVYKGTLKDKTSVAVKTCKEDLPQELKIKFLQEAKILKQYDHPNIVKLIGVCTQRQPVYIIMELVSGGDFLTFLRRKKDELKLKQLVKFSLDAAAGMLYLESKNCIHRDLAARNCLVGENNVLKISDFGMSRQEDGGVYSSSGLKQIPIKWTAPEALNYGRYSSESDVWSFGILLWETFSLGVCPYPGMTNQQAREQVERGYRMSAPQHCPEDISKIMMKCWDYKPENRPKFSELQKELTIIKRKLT

[11] = molecular target: T10, MAPK1(h) (Homo sapiens, UniProt P27361); experiment: Kinase panel
T10 construct: purchased Millipore KinaseProfiler
T10 sequence (P27361 whole entry): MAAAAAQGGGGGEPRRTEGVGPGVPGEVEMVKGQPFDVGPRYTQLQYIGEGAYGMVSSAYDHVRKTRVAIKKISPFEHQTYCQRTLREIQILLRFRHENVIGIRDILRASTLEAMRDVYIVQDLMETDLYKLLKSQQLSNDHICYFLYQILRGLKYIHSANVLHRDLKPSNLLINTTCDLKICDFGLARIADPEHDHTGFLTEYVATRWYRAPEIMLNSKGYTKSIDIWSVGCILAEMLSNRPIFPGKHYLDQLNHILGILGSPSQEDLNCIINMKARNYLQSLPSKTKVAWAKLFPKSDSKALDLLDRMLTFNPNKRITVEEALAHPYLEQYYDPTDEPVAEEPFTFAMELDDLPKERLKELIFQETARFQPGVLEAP

T1 sequence (P43250 whole entry): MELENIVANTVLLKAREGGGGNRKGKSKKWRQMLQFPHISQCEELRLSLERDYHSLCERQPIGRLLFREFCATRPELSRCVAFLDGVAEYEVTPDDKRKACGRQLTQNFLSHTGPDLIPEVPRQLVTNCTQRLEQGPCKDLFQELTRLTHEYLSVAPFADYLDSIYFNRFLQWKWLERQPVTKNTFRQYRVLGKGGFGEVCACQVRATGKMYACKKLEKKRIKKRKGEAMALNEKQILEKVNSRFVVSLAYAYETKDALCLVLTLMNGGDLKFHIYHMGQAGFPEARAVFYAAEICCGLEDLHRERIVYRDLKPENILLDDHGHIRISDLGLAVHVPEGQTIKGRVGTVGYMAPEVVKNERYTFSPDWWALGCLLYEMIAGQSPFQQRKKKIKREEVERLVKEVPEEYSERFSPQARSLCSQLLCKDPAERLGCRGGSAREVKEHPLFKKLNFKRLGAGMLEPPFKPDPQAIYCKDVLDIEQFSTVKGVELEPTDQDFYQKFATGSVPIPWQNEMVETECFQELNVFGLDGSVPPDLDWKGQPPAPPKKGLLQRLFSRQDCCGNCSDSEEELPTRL

Cn1ncc(Cl)c1-c1cc(C(=O)N[C@H](CN)Cc2cccc(F)c2)sc1Cl [GSK2110183]
inhibition at 0.5 µM [1]: -8%
inhibition at 10 µM [1]: 10%
inhibition at 0.5 µM [2]: 15%
inhibition at 10 µM [2]: 84%
inhibition at 0.5 µM [3]: -2%
inhibition at 10 µM [3]: 13%
inhibition at 0.5 µM [4]: -8%
inhibition at 10 µM [4]: -13%
inhibition at 0.5 µM [5]: 0%
inhibition at 10 µM [5]: 15%
inhibition at 0.5 µM [6]: 1%
inhibition at 10 µM [6]: 2%
inhibition at 0.5 µM [7]: -11%
inhibition at 10 µM [7]: 4%
IC50 [8]: > 1000 nM
inhibition at 0.5 µM [9]: -13%
inhibition at 10 µM [9]: -8%
inhibition at 0.5 µM [10]: -8%
inhibition at 10 µM [10]: 16%
inhibition at 0.5 µM [11]: -26%
inhibition at 10 µM [11]: 10%

Cn1ncc(Cl)c1-c1cc(C(=O)N[C@H](CN)Cc2ccc(F)c(F)c2)oc1Cl [GSK2141795]
inhibition at 0.5 µM ([1]; 0.5 µM, read-out: % Inhibition): -16%
inhibition at 10 µM ([1]; 10 µM, read-out: % Inhibition): 26%
inhibition at 0.5 µM ([2]; 0.5 µM, read-out: % Inhibition): 24%
inhibition at 10 µM ([2]; 10 µM, read-out: % Inhibition): 83%
inhibition at 0.5 µM ([3]; 0.5 µM, read-out: % Inhibition): -9%
inhibition at 10 µM ([3]; 10 µM, read-out: % Inhibition): -5%
inhibition at 0.5 µM ([4]; 0.5 µM, read-out: % Inhibition): -17%
inhibition at 10 µM ([4]; 10 µM, read-out: % Inhibition): -9%
inhibition at 0.5 µM ([5]; 0.5 µM, read-out: % Inhibition): 6%
inhibition at 10 µM ([5]; 10 µM, read-out: % Inhibition): 26%
inhibition at 0.5 µM ([6]; 0.5 µM, read-out: % Inhibition): 1%
inhibition at 10 µM ([6]; 10 µM, read-out: % Inhibition): 4%
inhibition at 0.5 µM ([7]; 0.5 µM, read-out: % Inhibition): -6%
inhibition at 10 µM ([7]; 10 µM, read-out: % Inhibition): -12%
IC50 [8]: > 1000 nM
inhibition at 0.5 µM ([9]; 0.5 µM, read-out: % Inhibition): -7%
inhibition at 10 µM ([9]; 10 µM, read-out: % Inhibition): -3%
inhibition at 0.5 µM ([10]; 0.5 µM, read-out: % Inhibition): 1%
inhibition at 10 µM ([10]; 10 µM, read-out: % Inhibition): -4%
inhibition at 0.5 µM ([11]; 0.5 µM, read-out: % Inhibition): 4%
inhibition at 10 µM ([11]; 10 µM, read-out: % Inhibition): 58%
